Earlier results as cited in patent US20210386741A1, “FORMULATIONS OF IBRUTINIB” (Zhuhai Beihai Biotech Co., Ltd., priority 2016, published 2021).

Assays:
[1] = oral
[2] = system: human plasma protein; conditions: in vitro, no concentration dependence in the range of 50 to 1000 ng/mL

SMILES: C=CC(=O)N1CCC[C@@H](n2nc(-c3ccc(Oc4ccccc4)cc3)c3c(N)ncnc32)C1 [ibrutinib]
- Absolute bioavailability ([1]; fasted condition (n=8), 90% CI=2.1−3.9): 2.9%
- change of absolute bioavailability when combined with a meal ([1]; with a meal versus fasted): doubled
- increase of AUC on administration with food ([1]; with food compared with after overnight fasting): approximately 2 fold
- reversible binding to human plasma protein [2]: 97.3%
- solubility in water: practically insoluble in water
